Data taken from patent US9205132B2, “Method of lowering mortality” (CORTHERA, INC., priority 2008, dated 2015).

How the values were obtained:
[1] = system: patients with acute heart failure (AHF); test: Patient-reported dyspnea (7-point Likert Scale, 100-mm VAS), Pre-RELAX-AHF trial; assay type: in vivo, human; settings: for average improvement in dyspnea VAS over the 5 days: corresponds to AUC to Day 5; for average change in dyspnea VAS over the 14 days: corresponds to AUC to Day 14; for Dyspnea AUC Change from baseline to Day 5 (VAS; mm*hr) / Dyspnea AUC Change from baseline to Day 14 (VAS; mm*hr): mean ± SD
Experimental: Study Procedures. The study was approved by the relevant ethics committees, institutional review hoards and regulatory authorities, and conducted under the International Conference on Harmonization Good Clinical Practice guidelines. All patients provided informed written consent prior to participation. […] The placebo used for the study was the same solution as the diluent used to prepare the 100 μg/kg/day dose. The randomization ratio was 3:2:2:2:2, respectively, Relaxin (Corthera, San Mateo, Calif.) was manufactured using recombinant techniques and was identical to the naturally-occurring peptide hormone. By protocol, the study drug infusion was to be terminated if the patient's SBP was reduced to <100 mmHg or by >40 mmHg compared to baseline in two successive measurements, 15 minutes apart. Investigators were not prohibited from utilizing any standard medication, thought necessary to treat patients enrolled in the study, including additional vasodilators, following a 4-hour washout period during which time IV vasodilators, IV pure inotropes and meals were withheld, hemodynamic, renal, and clinical responses to 48 hours of study drug infusion were assessed.
Study Endpoints. […] 4.) Length of initial hospital stay.
Dyspnea Responses. Results are presented via the Visual Analog Score (VAS) and the Likert Score. The VAS score measures a characteristic of attitude that ranges across a continuum of values, for example, the amount of discomfort an AHF patient feels ranges across a continuum from none to an extreme amount of discomfort and/or pain including dyspnea, hypertension, high blood pressure, arrhythmia and reduced renal blood flow. From the patient's perspective this spectrum appears continuous, which the VAS captures. Operationally a VAS is usually a horizontal line, 100 mm in length, anchored by word descriptors at each end (e.g., no discomfort on one end and severe discomfort on the other end). The patients marked on the line the point that they fell represented their perception of their current state. The VAS score is determined by measuring in millimeters from the left hand end of the line to the point that the patient marks (Wewers et al., Research in Nursing and Health 13:227-236, 1990).
The Likert Score is a unidimensional sealing method known in the art, wherein the set of scale items are rated on a numerical (herein 7-point) Disagree-Agree response scale. Each patient was asked to rate each item on the response scale. The final score for the respondents on the scale is the sum of their ratings for all of the items.

[2] = system: patients with acute heart failure (AHF); test: Post-discharge outcomes to Day 60 and Day 180 (death, rehospitalization), Pre-RELAX-AHF trial; settings: for Days alive out of hospital: Day 60, mean ± SD
Experimental: Patient-reported dyspnea was assessed using both a standard 7-point Likert Scale and a standard 100-mm Visual Analog Scale (VAS). Assessments were performed at baseline (VaS only), 6 h, 12 h, 24 h, 48 h after initiation of drug therapy and at Days 3, 4, 5 and 14. Questionnaires were administered in the local language, and investigators received training in the standardized administration of these evaluations. Daily, serial physician-reported assessments of heart failure signs and symptoms were, conducted including jugular venous distension, rales, edema, orthopnea, and dyspnea on exertion, in-hospital worsening heart failure was defined as a physician-determined assessment based on worsening symptoms or signs of heart failure and the need for the addition or institution of IV medications or mechanical support to treat AHF. Vital status and rehospitalization information was collected by telephone at Day 30, Day 60 and (vital status only at.) Day 180. When the last enrolled patient reached Day 60, telephone contact was made with all patients who were between Day 60 and Day 180 of follow-up to complete the study.
1.) Relief of dyspnea, assessed with two complementary Instruments; (a) Change in dyspnea by Likert scale, and (b) Change from baseline by Visual Analog Scale. 2.) In-hospital worsening heart failure (WMF) to Day 5. […] 4.) Length of initial hospital stay. 5.) Days alive and out-of-hospital to Day 60. 6.) Death due to cardiovascular causes or rehospitalization for heart failure or renal failure to Day 60. 7.) Mortality due to cardiovascular causes to Day 180. In addition, serial assessments of safety were performed including vital-signs, physical examinations, adverse events and clinical laboratory evaluations.
Data are presented as means with standard deviations unless otherwise specified. Missing data were generally imputed by a last-observation-carried-forward approach. The worst observed dyspnea Likert or VAS score was carried forward from the time of death or worsening heart failure. The area under the curve representing the change in VAS score from baseline through Day 5 was computed by trapezoidal rule. For patients who died during the initial hospitalization, length of stay was imputed as the maximum observed plus 1 day (33 days). […] To control for regional variations in this relatively small study, region as a covariate or stratifying variable was prospectively pre-specified in the analyses of treatment effect. Rehospitalization and mortality rates through Day 180 were estimated using Kaplan-Meier (product-limit) methods, and groups compared using the Wald test of the treatment effect from Cox regression models, where time-to-event was censored at last patient contact for patients without the event of interest.

[3] = 30 mcg/kg/d IV 48 h, listed as relaxin

Substance: Relaxin
- percent moderate or marked improvement in dyspnea (Likert), sustained over 14 days ([1]; 30 μg/kg/day, AHF patients with SBP greater than the median, FIG. 7): about 90%
- improvement in dyspnea within 6, 12 and 24 hours of administration ([1]; 30 μg/kg/day, FIG. 12): statistically significant improvement in dyspnea
- % moderately/markedly better dyspnea at 6, 12 and 24 hrs (Likert) ([1]; 10 mcg/kg/d IV 48 h): 27.5%
- average improvement in dyspnea VAS over the 5 days ([1]; 10 mcg/kg/d IV 48 h): 21 mm
- average change in dyspnea VAS over the 14 days ([1]; 10 mcg/kg/d IV 48 h): 10 mm
- Dyspnea AUC Change from baseline to Day 5 (VAS; mm*hr) ([1]; 10 mcg/kg/d IV 48 h): 2500 ± 2908 mm*hr
- Dyspnea AUC Change from baseline to Day 14 (VAS; mm*hr) ([1]; 10 mcg/kg/d IV 48 h): 6366 ± 10078 mm*hr
- % moderately/markedly better dyspnea at 6, 12 and 24 hrs (Likert) ([1]; 30 mcg/kg/d IV 48 h): 40.5%
- average improvement in dyspnea VAS over the 5 days ([1]; 30 mcg/kg/d IV 48 h): 22 mm
- average change in dyspnea VAS over the 14 days ([1]; 30 mcg/kg/d IV 48 h): 25 mm
- % moderately/markedly better dyspnea at 6, 12 and 24 hrs (Likert) [1, 3]: 40.5%
- Dyspnea AUC Change from baseline to Day 5 (VAS; mm*hr) ([1]; 30 mcg/kg/d IV 48 h): 2567 ± 2898 mm*hr
- Dyspnea AUC Change from baseline to Day 14 (VAS; mm*hr) ([1]; 30 mcg/kg/d IV 48 h): 8214 ± 8712 mm*hr
- Dyspnea AUC Change from baseline to Day 5 (VAS; mm*hr) [1, 3]: 2567±2898 mm*hr
- Dyspnea AUC Change from baseline to Day 14 (VAS; mm*hr) [1, 3]: 8214±8712 mm*hr
- % moderately/markedly better dyspnea at 6, 12 and 24 hrs (Likert) ([1]; 100 mcg/kg/d IV 48 h): 13.5%
- average improvement in dyspnea VAS over the 5 days ([1]; 100 mcg/kg/d IV 48 h): 21 mm
- average change in dyspnea VAS over the 14 days ([1]; 100 mcg/kg/d IV 48 h): 25 mm
- Dyspnea AUC Change from baseline to Day 5 (VAS; mm*hr) ([1]; 100 mcg/kg/d IV 48 h): 2486 ± 2865 mm*hr
- Dyspnea AUC Change from baseline to Day 14 (VAS; mm*hr) ([1]; 100 mcg/kg/d IV 48 h): 8227 ± 9707 mm*hr
- % moderately/markedly better dyspnea at 6, 12 and 24 hrs (Likert) ([1]; 250 mcg/kg/d IV 48 h): 22.4%
- average improvement in dyspnea VAS over the 5 days ([1]; 250 mcg/kg/d IV 48 h): 18 mm
- average change in dyspnea VAS over the 14 days ([1]; 250 mcg/kg/d IV 48 h): 21 mm
- Dyspnea AUC Change from baseline to Day 5 (VAS; mm*hr) ([1]; 250 mcg/kg/d IV 48 h): 2155 ± 2338 mm*hr
- Dyspnea AUC Change from baseline to Day 14 (VAS; mm*hr) ([1]; 250 mcg/kg/d IV 48 h): 6856 ± 7923 mm*hr
- time at which a beneficial effect on dyspnea was first seen ([1]; AHF patients with CrCl less than the median, FIG. 8): 6 h
- time at which a beneficial effect on dyspnea was first seen ([1]; AHF patients with SBP greater than the median, FIG. 7): 6 h
- onset of improvement in dyspnea ([1]; all relaxin-treated AHF patients): ≤ 6 h
- serum concentration at which relaxin was shown to be fully effective ([1]; see FIG. 6): 3 to 6 ng/mL
- estimated hazard reduction, death due to cardiovascular causes or rehospitalization due to heart failure or renal failure at day 60 ([2]; 30 mcg/kg/d IV 48 h, vs placebo): 87%
- Days alive out of hospital ([2]; 10 mcg/kg/d IV 48 h): 47.0 ± 13.0 days
- Days alive out of hospital ([2]; 30 mcg/kg/d IV 48 h): 47.9 ± 10.1 days
- Days alive out of hospital ([2]; 100 mcg/kg/d IV 48 h): 48 ± 10.1 days
- Days alive out of hospital ([2]; 250 mcg/kg/d IV 48 h): 47.6 ± 12.0 days
- All-cause death (KM %) ([2]; Day 180, 10 mcg/kg/d IV 48 h): 5.0%
- mean number of days alive and out-of-hospital at Day 60, greater than placebo ([2]; relaxin-treated patients vs placebo): approximately 4 days
